ChEMBL document CHEMBL4138146, “A Schmidt rearrangement-mediated synthesis of novel tetrahydro-benzo[1,4]diazepin-5-ones as potential anticancer and antiprotozoal agents” (Eur J Med Chem, 2017)

Tests used:
Format in all cases: functional
CCRF-CEM = assay: Growth inhibition of human CCRF-CEM cells assessed as cell growth at 10 uM incubated for 48 hrs by sulforhodamine B assay relative to control; settings: read-out: Activity
RPMI-8226 = assay: Growth inhibition of human RPMI8226 cells assessed as cell growth at 10 uM incubated for 48 hrs by sulforhodamine B assay relative to control; settings: RPMI-8226, 48 h, read-out: Activity
HOP-62 = assay: Growth inhibition of human HOP62 cells assessed as cell growth at 10 uM incubated for 48 hrs by sulforhodamine B assay relative to control; settings: HOP-62, 48 h, read-out: Activity
HOP-92 = assay: Growth inhibition of human HOP92 cells assessed as cell growth at 10 uM incubated for 48 hrs by sulforhodamine B assay relative to control; settings: HOP-92, 48 h, read-out: Activity
NCI-H226 = assay: Growth inhibition of human NCI-H226 cells assessed as cell growth at 10 uM incubated for 48 hrs by sulforhodamine B assay relative to control; settings: NCI-H226, 48 h, read-out: Activity
NCI-H23 = assay: Growth inhibition of human NCI-H23 cells assessed as cell growth at 10 uM incubated for 48 hrs by sulforhodamine B assay relative to control; settings: NCI-H23, 48 h, read-out: Activity
NCI-H322M = assay: Growth inhibition of human NCI-H322M cells assessed as cell growth at 10 uM incubated for 48 hrs by sulforhodamine B assay relative to control; settings: read-out: Activity
NCI-H460 = assay: Growth inhibition of human NCI-H460 cells assessed as cell growth at 10 uM incubated for 48 hrs by sulforhodamine B assay relative to control; settings: NCI-H460, 48 h, read-out: Activity
NCI-H522 = assay: Growth inhibition of human NCI-H522 cells assessed as cell growth at 10 uM incubated for 48 hrs by sulforhodamine B assay relative to control; settings: NCI-H522, 48 h, read-out: Activity
COLO 205 = assay: Growth inhibition of human COLO205 cells assessed as cell growth at 10 uM incubated for 48 hrs by sulforhodamine B assay relative to control; settings: COLO 205, 48 h, read-out: Activity
HCC 2998 = assay: Growth inhibition of human HCC2998 cells assessed as cell growth at 10 uM incubated for 48 hrs by sulforhodamine B assay relative to control; settings: HCC 2998, 48 h, read-out: Activity
HCT-116 = assay: Growth inhibition of human HCT116 cells assessed as cell growth at 10 uM incubated for 48 hrs by sulforhodamine B assay relative to control; settings: HCT-116, 48 h, read-out: Activity
HT-29 = assay: Growth inhibition of human HT-29 cells assessed as cell growth at 10 uM incubated for 48 hrs by sulforhodamine B assay relative to control; settings: HT-29, 48 h, read-out: Activity
KM12 = assay: Growth inhibition of human KM12 cells assessed as cell growth at 10 uM incubated for 48 hrs by sulforhodamine B assay relative to control; settings: KM12, 48 h, read-out: Activity
SW-620 = assay: Growth inhibition of human SW620 cells assessed as cell growth at 10 uM incubated for 48 hrs by sulforhodamine B assay relative to control; settings: SW-620, 48 h, read-out: Activity
SF-268 = assay: Growth inhibition of human SF268 cells assessed as cell growth at 10 uM incubated for 48 hrs by sulforhodamine B assay relative to control; settings: SF-268, 48 h, read-out: Activity
SNB-75 = assay: Growth inhibition of human SNB75 cells assessed as cell growth at 10 uM incubated for 48 hrs by sulforhodamine B assay relative to control; settings: SNB-75, 48 h, read-out: Activity
U-251 = assay: Growth inhibition of human U251 cells assessed as cell growth at 10 uM incubated for 48 hrs by sulforhodamine B assay relative to control; settings: U-251, 48 h, read-out: Activity
LOX IMVI = assay: Growth inhibition of human LOXIMVI cells assessed as cell growth at 10 uM incubated for 48 hrs by sulforhodamine B assay relative to control; settings: read-out: Activity
SK-MEL-2 = assay: Growth inhibition of human SK-MEL-2 cells assessed as cell growth at 10 uM incubated for 48 hrs by sulforhodamine B assay relative to control; settings: SK-MEL-2, 48 h, read-out: Activity
SK-MEL-5 = assay: Growth inhibition of human SK-MEL-5 cells assessed as cell growth at 10 uM incubated for 48 hrs by sulforhodamine B assay relative to control; settings: SK-MEL-5, 48 h, read-out: Activity
OVCAR-5 = assay: Growth inhibition of human OVCAR5 cells assessed as cell growth at 10 uM incubated for 48 hrs by sulforhodamine B assay relative to control; settings: OVCAR-5, 48 h, read-out: Activity
OVCAR-8 = assay: Growth inhibition of human OVCAR8 cells assessed as cell growth at 10 uM incubated for 48 hrs by sulforhodamine B assay relative to control; settings: OVCAR-8, 48 h, read-out: Activity
NCI/ADR-RES = assay: Growth inhibition of human NCI/ADR-RES cells assessed as cell growth at 10 uM incubated for 48 hrs by sulforhodamine B assay relative to control; settings: read-out: Activity
786-0 = assay: Growth inhibition of human 786-0 cells assessed as cell growth at 10 uM incubated for 48 hrs by sulforhodamine B assay relative to control; settings: 786-0, 48 h, read-out: Activity
A498 = assay: Growth inhibition of human A498 cells assessed as cell growth at 10 uM incubated for 48 hrs by sulforhodamine B assay relative to control; settings: A498, 48 h, read-out: Activity
ACHN = assay: Growth inhibition of human ACHN cells assessed as cell growth at 10 uM incubated for 48 hrs by sulforhodamine B assay relative to control; settings: read-out: Activity
CAKI-1 = assay: Growth inhibition of human Caki1 cells assessed as cell growth at 10 uM incubated for 48 hrs by sulforhodamine B assay relative to control; settings: CAKI-1, 48 h, read-out: Activity
RXF 393 = assay: Growth inhibition of human RXF393 cells assessed as cell growth at 10 uM incubated for 48 hrs by sulforhodamine B assay relative to control; settings: RXF 393, 48 h, read-out: Activity
SN12C = assay: Growth inhibition of human SN12C cells assessed as cell growth at 10 uM incubated for 48 hrs by sulforhodamine B assay relative to control; settings: read-out: Activity
DU-145 = assay: Growth inhibition of human DU145 cells assessed as cell growth at 10 uM incubated for 48 hrs by sulforhodamine B assay relative to control; settings: DU-145, 48 h, read-out: Activity
Hs-578T = assay: Growth inhibition of human Hs 578T cells assessed as cell growth at 10 uM incubated for 48 hrs by sulforhodamine B assay relative to control; settings: read-out: Activity
BT-549 = assay: Growth inhibition of human BT549 cells assessed as cell growth at 10 uM incubated for 48 hrs by sulforhodamine B assay relative to control; settings: BT-549, 48 h, read-out: Activity

Row | Structure (SMILES) | growth at 10 µM (CCRF-CEM) [%] | growth at 10 µM (RPMI-8226) [%] | growth at 10 µM (HOP-62) [%] | growth at 10 µM (HOP-92) [%] | growth at 10 µM (NCI-H226) [%] | growth at 10 µM (NCI-H23) [%] | growth at 10 µM (NCI-H322M) [%] | growth at 10 µM (NCI-H460) [%] | growth at 10 µM (NCI-H522) [%] | growth at 10 µM (COLO 205) [%] | growth at 10 µM (HCC 2998) [%] | growth at 10 µM (HCT-116) [%] | growth at 10 µM (HT-29) [%] | growth at 10 µM (KM12) [%] | growth at 10 µM (SW-620) [%] | growth at 10 µM (SF-268) [%] | growth at 10 µM (SNB-75) [%] | growth at 10 µM (U-251) [%] | growth at 10 µM (LOX IMVI) [%] | growth at 10 µM (SK-MEL-2) [%] | other results
1 | CCCCOc1nc2ccccc2cc1C1CNC(=O)c2ccccc2N1 (centres undefined) | 12.6 | 25.6 | 23 | 48.9 | 0.7 | 23.8 | 47.2 | 6.89 | -13.6 | 9.84 | 56.5 | 15.6 | 0.87 | 23.9 | 20.9 | 43.6 | 3.14 | 18.6 | 27.1 | 15.7 | growth at 10 µM (SK-MEL-5): 15.6%; growth at 10 µM (OVCAR-5): 55.3%; growth at 10 µM (OVCAR-8): 22.4%; growth at 10 µM (NCI/ADR-RES): 3.84%; growth at 10 µM (786-0): 26.2%; growth at 10 µM (A498): -11.2%; growth at 10 µM (ACHN): 46.7%; growth at 10 µM (CAKI-1): 42.6%; growth at 10 µM (RXF 393): -14.3%; growth at 10 µM (SN12C): 44.1%; growth at 10 µM (DU-145): 10.7%; growth at 10 µM (Hs-578T): 34.1%; growth at 10 µM (BT-549): 41%
2 | CCCCOc1nc2c(C)cccc2cc1C1CNC(=O)c2ccccc2N1 (centres undefined) | 34.3 | 57.5 | 56.2 | 62.6 | 89 | 80 | 105 | 56.2 | 44.8 | 90.8 | 101 | 45.9 | 61.4 | 56.4 | 42.3 | 66.9 | 56.6 | 63.7 | 60.8 | 62.9 | growth at 10 µM (SK-MEL-5): 43.4%; growth at 10 µM (OVCAR-5): 112%; growth at 10 µM (OVCAR-8): 81.2%; growth at 10 µM (NCI/ADR-RES): 51.3%; growth at 10 µM (786-0): 46.2%; growth at 10 µM (A498): 55.3%; growth at 10 µM (ACHN): 66.3%; growth at 10 µM (CAKI-1): 52.1%; growth at 10 µM (RXF 393): 78.3%; growth at 10 µM (SN12C): 70.9%; growth at 10 µM (DU-145): 86%; growth at 10 µM (Hs-578T): 69.7%; growth at 10 µM (BT-549): 74.5%
3 | O=C1NCC(c2cc3ccc(Cl)cc3[nH]c2=O)Nc2ccccc21 (centres undefined) | 134 | 119 | 81.3 | 74 | 79.7 | 94 | 98 | 104 | 63.8 | 94.9 | 105 | 87.8 | 72.2 | 103 | 107 | 106 | 84.3 | 88.9 | 96.3 | 103 | growth at 10 µM (SK-MEL-5): 102%; growth at 10 µM (OVCAR-5): 97.7%; growth at 10 µM (OVCAR-8): 97.8%; growth at 10 µM (NCI/ADR-RES): 99.4%; growth at 10 µM (786-0): 99.7%; growth at 10 µM (A498): 112%; growth at 10 µM (ACHN): 101%; growth at 10 µM (CAKI-1): 101%; growth at 10 µM (RXF 393): 97.2%; growth at 10 µM (SN12C): 111%; growth at 10 µM (DU-145): 110%; growth at 10 µM (Hs-578T): 113%; growth at 10 µM (BT-549): 99.9%
